Series [1] concerns the target T1, stearoyl-CoA desaturase (SCD1) (Mus musculus, UniProt P13516).
T1 construct: Reactions are started by adding 50 μL of microsomes (1.25 mg/mL); from tissue; host or cells: liver microsomes of male ICR outbred mice on a high-carbohydrate, low-fat diet
T1 sequence (P13516 1-355): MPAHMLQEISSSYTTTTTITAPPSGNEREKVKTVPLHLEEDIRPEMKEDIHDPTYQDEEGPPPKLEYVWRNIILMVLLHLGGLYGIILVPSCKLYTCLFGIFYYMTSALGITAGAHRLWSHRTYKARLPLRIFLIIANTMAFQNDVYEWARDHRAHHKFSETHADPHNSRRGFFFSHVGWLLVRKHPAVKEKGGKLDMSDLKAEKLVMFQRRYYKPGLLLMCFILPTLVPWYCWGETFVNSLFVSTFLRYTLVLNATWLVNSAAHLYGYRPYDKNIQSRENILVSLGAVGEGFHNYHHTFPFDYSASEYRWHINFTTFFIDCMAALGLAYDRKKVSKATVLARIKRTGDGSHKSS
The series can be described thus: SCD inhibition assay using mouse liver microsomes (release of 3H2O from [9,10-3H]stearoyl-CoA). The series is classed as biochemical. The conditions noted are these: 15 min incubation, 25° C., read-out: Microsomal IC50. How it is done: Measuring Stearoyl-CoA Desaturase Inhibition Activity of a Test Compound Using Mouse Liver Microsomes
Livers are immediately rinsed with cold 0.9% NaCl solution, weighed and minced with scissors. All procedures are performed at 4° C. unless specified otherwise. Livers are homogenized in a solution (1/3 w/v) containing 0.25 M sucrose, 62 mM potassium phosphate buffer (pH 7.0), 0.15 M KCl, 15 mM N-acetyleysteine, 5 mM MgCl2, and 0.1 mM EDTA using 4 strokes of a Potter-Elvehjem tissue homogenizer. The homogenate is centrifuged at 10,400×g for 20 min to eliminate mitochondria and cellular debris. The supernatant is filtered through a 3-layer cheesecloth and centrifuged at 105,000×g for 60 min. The microsomal pellet is gently resuspended in the same homogenization solution with a small glass/teflon homogenizer and stored at ˜70° C. The absence of mitochondrial contamination is enzymatically assessed. The protein concentration is measured using bovine serum albumin as the standard.
Desaturase activity is measured as the release of ^3H2O from [9,10-^3H]stearoyl-CoA. Reactions per assay point conditions are as follows: 2 μL 1.5 mM stearoyl-CoA, 0.25 μL 1 mCi/mL ^3H stearoyl CoA, 10 μL 20 mM NADH, 36.75 μL 0.1 M PK buffer (K2HPO4/NaH2PO4, pH 7.2). The test compound or control solution is added in a 1 μL volume. […] The plates are mixed and after 15 min incubation on a heating block (25° C.), the reactions are stopped by the addition of 10 μL 60% PCA. An aliquot of 100 μL is then transferred to a filter plate pretreated with charcoal and the plate centrifuged at 4000 rpm for 1 minute. The flow through containing the ^3H2O released by the SCD1 desaturation reaction is added to scintillation fluid and the radioactivity measured in a Packard TopCount. The data is analysed to identify the IC50 for test compounds and reference compounds.
The activity was defined in terms of % SCD enzyme activity remaining at the desired concentration of the test compound or as the IC50 concentration.
In general terms: Liver microsomes are vesicles of endoplasmic reticulum, rich in cytochrome P450 enzymes.

In the case of `O=C(NCc1nccs1)c1cc(N2CCN(Cc3ccc(F)cc3)C2=O)n[nH]1` [Example 8.2, 3-(3-(4-fluorobenzyl)-2-oxoimidazolidin-1-yl)-N-(thiazol-2-ylmethyl)-1H-pyrazole-5-carboxamide], the melting point is 272 to 274 °C. For the same compound, in series [1], the IC50 stood at 8 nM.

Regarding `O=C(NCc1ccncc1)c1cc(-n2cnn(Cc3ccc(F)cc3)c2=O)n[nH]1` [Example 8.8, 3-(1-(4-fluorobenzyl)-5-oxo-1H-1,2,4-triazol-4(5H)-yl)-N-(pyridin-4-ylmethyl)-1H-pyrazole-5-carboxamide], the melting point was in the range of 262 to 263 °C. For the same compound, in series [1], the IC50 turned out to be 65 nM.

`O=C(NCc1cccnc1)c1cc(N2CCN(Cc3ccc(F)cc3)C2=O)n[nH]1` [Example 6, 3-(3-(4-fluorobenzyl)-2-oxoimidazolidin-1-yl)-N-(pyridin-3-ylmethyl)-1H-pyrazole-5-carboxamide]: the melting point was 251 to 253 °C. In addition, the 50% inhibitory concentration (IC50) in series [1] amounted to 3 nM.

Consider `NC(=O)c1cc(N2CCN(Cc3ccc(F)cc3)C2=O)n[nH]1` [Example 8.4, 3-(3-(4-fluorobenzyl)-2-oxoimidazolidin-1-yl)-1H-pyrazole-5-carboxamide], for which the melting point is 256 to 258 °C. In addition, in series [1], the concentration for half-maximal inhibition (IC50) was 368 nM.

Compound `CNC(=O)c1cc(-n2cnn(Cc3ccc(F)cc3)c2=O)n[nH]1` [Example 2.2, 3-(1-(4-Fluorobenzyl)-5-oxo-1H-1,2,4-triazol-4(5H)-yl)-N-methyl-1H-pyrazole-5-carboxamide] had a melting point of 268 to 269 °C. Also, the IC50 in series [1] stood at 385 nM.

`Cc1cc(CNC(=O)c2cc(-n3cnn(Cc4ccc(F)cc4)c3=O)n[nH]2)no1` [Example 7, 3-(1-(4-fluorobenzyl)-5-oxo-1H-1,2,4-triazol-4(5H)-yl)-N-((5-methylisoxazol-3-yl)methyl)-1H-pyrazole-5-carboxamide] displayed a melting point of 276 to 277 °C. Besides, the IC50 in series [1] is 22 nM.

`O=C(NCc1cocn1)c1cc(-n2cnn(Cc3ccc(F)cc3)c2=O)n[nH]1` [Example 8.6, 3-(1-(4-fluorobenzyl)-5-oxo-1H-1,2,4-triazol-4(5H)-yl)-N-(oxazol-4-ylmethyl)-1H-pyrazole-5-carboxamide] showed a melting point of 267 to 268 °C. In addition, the IC50 in series [1] is 165 nM.

As for `O=C(NCc1ccccc1)c1cc(N2CCN(Cc3ccc(F)cc3)C2=O)n[nH]1` [Example 8.3, N-benzyl-3-(3-(4-fluorobenzyl)-2-oxoimidazolidin-1-yl)-1H-pyrazole-5-carboxamide], the IC50 in series [1] was found to be 11 nM.

Take `O=C(NCc1ccccc1)c1cc(-n2cnn(Cc3ccc(F)cc3)c2=O)n[nH]1` [Example 2.1, N-benzyl-3-(1-(4-fluorobenzyl)-5-oxo-1H-1,2,4-triazol-4(5H)-yl)-1H-pyrazole-5-carboxamide]: in series [1], the IC50 was 6 nM.

In the case of `NC(=O)c1cc(-n2cnn(Cc3ccc(F)cc3)c2=O)n[nH]1` [Example 8.5, 3-(1-(4-fluorobenzyl)-5-oxo-1H-1,2,4-triazol-4(5H)-yl)-1H-pyrazole-5-carboxamide], the melting point is > 270 °C. The IC50 in series [1] turned out to be 488 nM.

On to `O=C(NCc1cccnc1)c1cc(-n2cnn(Cc3ccc(F)cc3)c2=O)n[nH]1` [Example 2, 3-(1-(4-fluorobenzyl)-5-oxo-1H-1,2,4-triazol-4(5H)-yl)-N-(pyridin-3-ylmethyl)-1H-pyrazole-3-carboxamide], for which the melting point lay in the range of 235 to 236 °C. In series [1], the IC50 came out at 7 nM.

As to `Cc1cc(CNC(=O)c2cc(N3CCN(Cc4ccc(F)cc4)C3=O)n[nH]2)n[nH]1` [Example 4, 3-(3-(4-fluorobenzyl)-2-oxoimidazolidin-1-yl)-N-((5-methyl-1H-pyrazol-3-yl)methyl)-1H-pyrazole-5-carboxamide], the melting point lay in the range of 254 to 255 °C. In series [1], the IC50 came out at 88 nM.

`O=C(NCc1ccccn1)c1cc(N2CCN(Cc3ccc(F)cc3)C2=O)n[nH]1` [Example 3, 3-(3-(4-fluorobenzyl)-2-oxoimidazolidin-1-yl)-N-(pyridin-2-ylmethyl)-1H-pyrazole-5-carboxamide] displayed a melting point of 235 to 237 °C. Also, in series [1], the IC50 was 45 nM.

For `Cc1cc(CNC(=O)c2cc(N3CCN(Cc4ccc(F)cc4)C3=O)n[nH]2)no1` [Example 5, 3-(3-(4-fluorobenzyl)-2-oxoimidazolidin-1-yl)-N-((5-methylisoxazol-3-yl)methyl)-1H-pyrazole-5-carboxamide], the melting point was 294 to 296 °C (dec.). Further, the IC50 in series [1] came out at 37 nM.

For the compound `O=C(NCc1ccc(F)c(F)c1)c1cc(-n2cnn(Cc3ccc(F)cc3)c2=O)n[nH]1` [Example 1, N-(3,4-difluorobenzyl)-3-(1-(4-fluorobenzyl)-5-oxo-1H-1,2,4-triazol-4(5H)-yl)-1H-pyrazole-5-carboxamide], the melting point lay in the range of 208 to 209 °C. Besides, the IC50 in series [1] was 8 nM.

The compound `O=C(NCc1ccccn1)c1cc(-n2cnn(Cc3ccc(F)cc3)c2=O)n[nH]1` [Example 8, 3-(1-(4-fluorobenzyl)-5-oxo-1H-1,2,4-triazol-4(5H)-yl)-N-(pyridin-2-ylmethyl)-1H-pyrazole-5-carboxamide] returned a melting point of 224 to 225 °C. Also, the IC50 in series [1] came out at 23 nM.

Compound `Cn1cc(CNC(=O)c2cc(N3CCN(Cc4ccc(F)cc4)C3=O)n[nH]2)cn1` [Example 8.1, 3-(3-(4-fluorobenzyl)-2-oxoimidazolidin-1-yl)-N-((1-methyl-1H-pyrazol-4-yl)methyl)-1H-pyrazole-5-carboxamide] displayed a melting point of 244 to 245 °C. Moreover, the IC50 in series [1] was 122 nM.

One may read the IC50 as the midpoint of a concentration-inhibition curve. Usually melting point stands for the temperature, or range, at which the solid turns liquid.

For the origin of these results see patent US20130011361A1, “PYRAZOLE DERIVATIVES WHICH MODULATE STEAROYL-COA DESATURASE” (XENON PHARMACEUTICALS INC., priority 2009, published 2013).
